Data from PubChem BioAssay (NCI).
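Test compounds were applied to cells in 96-well plates for 48 hours at 5 doses. TGI marks complete inhibition of growth.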

Tests used:
Assay in all cases: NCI-60 cell line screen, 48 h
ACHN renal = test system: ACHN renal
OVCAR-4 ovarian = test system: OVCAR-4 ovarian
A549 NSCLC = test system: A549 NSCLC
MALME-3M melanoma = test system: MALME-3M melanoma
A498 renal = test system: A498 renal
HT29 colon = test system: HT29 colon
HL-60(TB) leukemia = test system: HL-60(TB) leukemia
UO-31 renal = test system: UO-31 renal
KM12 colon = test system: KM12 colon
HCT-15 colon = test system: HCT-15 colon
NCI-H522 lung = test system: NCI-H522 lung
SNB-75 CNS = test system: SNB-75 CNS
786-0 renal = test system: 786-0 renal
SF-295 CNS = test system: SF-295 CNS
M14 melanoma = test system: M14 melanoma
OVCAR-8 ovarian = test system: OVCAR-8 ovarian
DU-145 prostate = test system: DU-145 prostate
MOLT-4 leukemia = test system: MOLT-4 leukemia
NCI-H23 lung = test system: NCI-H23 lung
HCC-2998 colon = test system: HCC-2998 colon

O=C(c1c(F)c(F)c(F)c(F)c1F)N1CCN(C(=O)c2c(F)c(F)c(F)c(F)c2F)C1=S
TGI (ACHN renal): 20.3 µM | TGI (OVCAR-4 ovarian): 10.4 µM | TGI (A549 NSCLC): 29.5 µM | TGI (MALME-3M melanoma): 15.8 µM | TGI (A498 renal): 32 µM | TGI (HT29 colon): 12.9 µM | TGI (HL-60(TB) leukemia): > 100 µM | TGI (UO-31 renal): 10 µM | TGI (KM12 colon): 18.8 µM | TGI (HCT-15 colon): 6.15 µM | TGI (NCI-H522 lung): 1.65 µM | TGI (SNB-75 CNS): 23 µM | TGI (786-0 renal): 27.3 µM | TGI (SF-295 CNS): 28.5 µM | TGI (M14 melanoma): 4.02 µM | TGI (OVCAR-8 ovarian): 12.9 µM | TGI (DU-145 prostate): 27.2 µM | TGI (MOLT-4 leukemia): 11.4 µM | TGI (NCI-H23 lung): 20.1 µM | TGI (HCC-2998 colon): 22.7 µM

COc1c(OC(C)C)c(OC(C)C)c2oc(=O)n3c2c1C(c1ccccc1-n1c(C)ccc1C)C=C3 (stereo not given)
TGI (ACHN renal): > 100 µM | TGI (OVCAR-4 ovarian): > 100 µM | TGI (A549 NSCLC): > 100 µM | TGI (MALME-3M melanoma): 50 µM | TGI (A498 renal): > 100 µM | TGI (HT29 colon): > 100 µM | TGI (HL-60(TB) leukemia): > 100 µM | TGI (UO-31 renal): > 100 µM | TGI (KM12 colon): > 100 µM | TGI (HCT-15 colon): > 100 µM | TGI (NCI-H522 lung): > 100 µM | TGI (SNB-75 CNS): > 100 µM | TGI (786-0 renal): > 100 µM | TGI (SF-295 CNS): > 100 µM | TGI (M14 melanoma): > 100 µM | TGI (OVCAR-8 ovarian): > 100 µM | TGI (DU-145 prostate): > 100 µM | TGI (MOLT-4 leukemia): > 100 µM | TGI (NCI-H23 lung): > 100 µM | TGI (HCC-2998 colon): > 100 µM

CC1=CC[C@H](C(C)C)C(C(O)[C@@H](C)O[Si](c2ccccc2)(c2ccccc2)C(C)(C)C)C1=O (stereo not given in full)
TGI (ACHN renal): 31.1 µM | TGI (OVCAR-4 ovarian): 41 µM | TGI (A549 NSCLC): 38.4 µM | TGI (MALME-3M melanoma): 52.8 µM | TGI (A498 renal): 35.5 µM | TGI (HT29 colon): 31.7 µM | TGI (HL-60(TB) leukemia): 42.6 µM | TGI (UO-31 renal): 31.7 µM | TGI (KM12 colon): 48.3 µM | TGI (HCT-15 colon): 36.4 µM | TGI (NCI-H522 lung): 37.6 µM | TGI (SNB-75 CNS): 54.4 µM | TGI (786-0 renal): 32.7 µM | TGI (SF-295 CNS): 33.1 µM | TGI (M14 melanoma): 32.6 µM | TGI (OVCAR-8 ovarian): 54.1 µM | TGI (DU-145 prostate): 65.4 µM | TGI (MOLT-4 leukemia): > 100 µM | TGI (NCI-H23 lung): 40.2 µM | TGI (HCC-2998 colon): 29 µM

COC(=O)C1=CSC2(S1)C(C(=O)OC)=CSc1c2ssc1=O (stereo not given)
TGI (ACHN renal): 3.61 µM | TGI (OVCAR-4 ovarian): 3.81 µM | TGI (A549 NSCLC): 28.3 µM | TGI (MALME-3M melanoma): 6.18 µM | TGI (A498 renal): 12.5 µM | TGI (HT29 colon): 3.71 µM | TGI (HL-60(TB) leukemia): 3.45 µM | TGI (UO-31 renal): 3.25 µM | TGI (KM12 colon): 12.8 µM | TGI (HCT-15 colon): 3.31 µM | TGI (NCI-H522 lung): 3.14 µM | TGI (SNB-75 CNS): 8.16 µM | TGI (786-0 renal): 2.96 µM | TGI (SF-295 CNS): 40.5 µM | TGI (M14 melanoma): 6.65 µM | TGI (OVCAR-8 ovarian): 8.47 µM | TGI (DU-145 prostate): 3.3 µM | TGI (MOLT-4 leukemia): > 19.8 µM | TGI (NCI-H23 lung): 5.12 µM | TGI (HCC-2998 colon): 8.82 µM

CO[C@@H]1C[C@H]2[C@@H]3CC[C@H]([C@@H](C)CO)[C@@]3(C)CC[C@@H]2[C@@]2(C)CC[C@H]3C[C@]312
TGI (ACHN renal): 66.4 µM | TGI (OVCAR-4 ovarian): > 100 µM | TGI (A549 NSCLC): > 100 µM | TGI (MALME-3M melanoma): 41.2 µM | TGI (A498 renal): > 100 µM | TGI (HT29 colon): 36.2 µM | TGI (HL-60(TB) leukemia): 76.3 µM | TGI (UO-31 renal): 98.8 µM | TGI (KM12 colon): 36.6 µM | TGI (HCT-15 colon): > 100 µM | TGI (NCI-H522 lung): 71.8 µM | TGI (SNB-75 CNS): > 100 µM | TGI (786-0 renal): > 100 µM | TGI (SF-295 CNS): 89.2 µM | TGI (M14 melanoma): 69.8 µM | TGI (OVCAR-8 ovarian): > 100 µM | TGI (DU-145 prostate): > 100 µM | TGI (MOLT-4 leukemia): > 100 µM | TGI (NCI-H23 lung): > 100 µM | TGI (HCC-2998 colon): > 100 µM
